Results from patent US20110124727A1, “Oxybuprocaine-Containing Analgesic/Antipruritic External Preparation” (Teikoku Seiyaku Co., LTD, priority 2008, published 2011).

Tested on: male ddy strain mouse
Experiment: Pharmacological test of antipruritic action using mice (Compound 48/80-induced scratching)
Conditions: for Number of times scratching occurred (mean ± standard error): counted for 30 minutes after Compound 48/80 100 μg/body s.c., oxybuprocaine in saline 10 mg/kg dorsal neck, cyproheptadine 1 mg/kg intraperitoneally, n=6

CCCCOc1cc(C(=O)OCCN(CC)CC)ccc1N [oxybuprocaine, Oxybuprocaine]
Antipruritic effect in words (suppression of scratching behaviors) (compared to saline control group and cyproheptadine group): suppressed scratching behaviors strongly
Number of times scratching occurred (mean ± standard error): 45.8 ± 18.9

CN1CCC(=C2c3ccccc3C=Cc3ccccc32)CC1 [cyproheptadine]
Number of times scratching occurred (mean ± standard error): 76.7 ± 21.3
